# From PMC6006164, “Natural cyclopeptide RA-V inhibits the NF-κB signaling pathway by targeting TAK1” (Cell Death & Disease, 2018)
# What was measured:
# [1] = Toxicity assessment in xenograft-bearing mice; assay type: in vivo, female athymic nude BALB/c mice
# Excerpt: Fig. 8 Analysis of potential side effects for treatment of RA-V. a–b The change curves of body weights of BALB/c bearing HCT116 (a) or HepG2 (b) xenograft tumors (n = 8 or 7). c Representative hematoxylin–eosin staining of heart, kidney, spleen, lung, and liver from vehicle- and various concentrations of RA-V-treated group. d The evaluation of serum ALT, AST, and creatine kinase for vehicle- and various concentrations of the RA-V-treated group
# (§1) In total, 2 × 10^6 HCT116 or 3 × 10^6 HepG2 cells were subcutaneously injected into the right dorsal flank of 6- to 8-week-old female athymic nude BALB/c mice. After tumor volumes reached 100 mm^3, the tumor-bearing mice were randomly divided into several groups. The mice bearing HCT116 (n = 8) or HepG2 xenograft tumors (n = 7) were received the intravenous injection of vehicle micelles or various concentrations of RA-V micelles every other day. 5-FU (10 mg/kg) group as positive control. Body weights and tumor volumes were recorded every other day. Tumor volumes were calculated using the following formula: tumor volume (mm^3) = 0.52 × length × width^2. At the end of the experiments, the mice were killed. Tumor xenografts of each mouse were removed and weighed. Part of each tumor tissue was stored at liquid nitrogen for quantitative RT-PCR analysis. Organs (heart, kidney, spleen, lung, and liver) from killed mice were also removed, fixed in the 4% formaldehyde solution for microscopic examination by hematoxylin–eosin staining. Serum alanine transaminase(ALT), aspartate transaminase(AST), and creatine kinase(CK) were determined using relevant kits (Nanjing Jiancheng) according to the manufacturer’s specific instructions.
# HCT116 xenograft tumors = experiment: HCT116 xenograft in nude mice; assay type: in vivo, female athymic nude BALB/c mice
# Procedure: Fig. 7 RA-V inhibits tumor growth and the expression of NF-κB target genes in a nude xenograft model. a–d Inhibition of the growth of HCT116 and HepG2 xenograft tumors by RA-V. Female athymic nude BALB/c mice bearing HCT116 (n = 8) or HepG2 (n = 7) xenograft tumors were intravenously injected with various concentrations of RA-V micelles or control micelles every other day. 5-FU (10 mg/kg) group as positive control. Effects of RA-V on the growth curves of subcutaneoue xenografts of HCT116 (a) and HepG2 (b) and effects on the tumor weight in the HCT116 (c) and HepG2 (d) models. e–f Tumors removed were photographed. g–h The expression of the NF-κB target genes, IL-8, MCP-1, and CXCL-1, in HCT116 (g) and HepG2 (h) tumor tissue from vehicle- and various concentrations of RA-V-treated group was determined by quantitative RT-PCR and normalized to GADPH expression. *, p < 0.05; **, p < 0.01; ***, p < 0.001
# as §1, with “Organs (heart, kidney, spleen, lung, and liver) from killed mice were also removed, fixed in the 4% formaldehyde solution for microscopic examination by hematoxylin–eosin staining.” left out
# TAK1–TAB2 interaction [2] = biological target: T1, TAK1–TAB2 interaction (Homo sapiens, UniProt O43318); experiment: Co-immunoprecipitation of TAK1 and TAB2; assay type: cell-based; conditions: HEK293T, Flag-TAK1 and HA-TAB2; RA-V 6 h
# T1 construct: expressed in transfected cells; host or cells: HEK293T
# T1 sequence (O43318 1-579 isoform O43318-2): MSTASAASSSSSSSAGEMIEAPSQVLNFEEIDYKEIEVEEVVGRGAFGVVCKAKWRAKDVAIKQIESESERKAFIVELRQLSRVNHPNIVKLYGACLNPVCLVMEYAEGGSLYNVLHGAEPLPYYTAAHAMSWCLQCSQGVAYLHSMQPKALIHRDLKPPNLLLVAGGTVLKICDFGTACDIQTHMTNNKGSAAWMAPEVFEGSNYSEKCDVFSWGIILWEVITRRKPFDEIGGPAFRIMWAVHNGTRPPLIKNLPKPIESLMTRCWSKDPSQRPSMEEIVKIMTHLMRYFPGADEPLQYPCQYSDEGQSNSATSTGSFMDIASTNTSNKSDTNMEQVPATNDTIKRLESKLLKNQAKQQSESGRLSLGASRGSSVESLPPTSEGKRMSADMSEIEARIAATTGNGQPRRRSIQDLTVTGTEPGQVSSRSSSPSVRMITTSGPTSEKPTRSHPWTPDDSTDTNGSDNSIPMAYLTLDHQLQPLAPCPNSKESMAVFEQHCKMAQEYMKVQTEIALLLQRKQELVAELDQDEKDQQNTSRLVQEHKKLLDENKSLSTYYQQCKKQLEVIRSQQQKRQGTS
# Procedure: (§2) Fig. 4 RA-V blocks the interaction between TAK1 and TAB2. a RA-V blocked the exogenous TAK1–TAB2 interaction. HEK293T cells were transfected with Flag-TAK1 and HA-TAB2 for 24 h and then incubated with various concentrations of RA-V for 6 h. […] HEK293T cells were transfected with Flag-TAK1 and HA-TRAF6 or HA-TAB1 for 24 h and then incubated with RA-V (800 nM) for 6 h. The cell lysates were immunoprecipitated with HA antibody, and immunoblots were performed with the indicated antibodies. d RA-V blocked the endogenous TAK1–TAB2 interaction. HEK293T (left) or RAW264.7 (right) cells were incubated with 800 nM RA-V for 6 h and stimulated with 10 ng/mL TNF-α for 2 h or 1 μg/mL LPS for 3 h, respectively. The cell lysates were immunoprecipitated with TAK1 antibody or control IgG and then immunoblotted with the indicated antibodies. Each experiment was repeated at least three times
# (§3) The cell lysates were prepared using radioimmunoprecipitation (RIPA) buffer containing 50 mM Tris-HCl pH 7.4, 150 mM NaCl, 1 mM ethylenediaminetetraacetic acid, 1% Triton X-100, 0.5% deoxycholate, and 0.1% sodium dodecyl sulfate, to which protease inhibitors (Roche) were added. The lysates were incubated with the indicated antibodies before adding 20 μL of Protein A/G agarose for 2 h. After four washes with the same buffer, the immunoprecipitates were boiled in 2 × SDS loading buffer.
# TAK1–TAB2 interaction [3] = experiment: Co-immunoprecipitation of TAK1 and TAB2; assay type: cell-based; conditions: HEK293T or RAW264.7; 800 nM RA-V 6 h
# Procedure: as §2, §3
# [4] = system: p65 nuclear translocation; experiment: Immunofluorescence assay of p65 nuclear translocation; assay type: cell-based; conditions: HeLa; 200 nM RA-V 6 h, 10 ng/mL TNF-α 15 min
# [5] = HCT116, n = 8, RA-V micelles i.v. every other day, vs control
substance,measurement,setting,value
RA-V,body weight,"[1]; HCT116 or HepG2 xenograft mice, measured every other day, vs control",no obvious changes
same,"toxic pathological changes in heart, kidney, spleen, lung and liver","[1]; hematoxylin–eosin staining, vs control",no obvious toxic pathological changes
same,"levels of serum ALT, AST and creatine kinase","[1]; liver and heart toxicity, vs vehicle",no significant changes
same,tumor growth rate (tumor volume),HCT116 xenograft tumors; [5],significantly reduced
same,tumor weight,HCT116 xenograft tumors; [5],obviously lower
same,"expression of IL-8, MCP-1, and CXCL-1 in tumor tissue","HCT116 xenograft tumors; HCT116 xenograft, quantitative RT-PCR",remarkable decreased
same,interaction between exogenously expressed TAK1 and TAB2,TAK1–TAB2 interaction [2],dose-dependently blocked
same,endogenous TNF-α- or LPS-induced TAK1–TAB2 interaction,TAK1–TAB2 interaction [3],inhibited the interaction
same,TNF-α-induced p65 nuclear translocation,[4],significantly blocked
